# Patent US20260193250A1, “TOLL-LIKE RECEPTOR 7 AGONISTS AS IMMUNE-STIMULATORS TO ELICIT THE INNATE ANTITUMOR IMMUNITY” (Merck Patent GmbH, priority 2022, published 2026)
# pEC50: −log10 of the molar value.
# Target: T1, hTLR8 (Homo sapiens, UniProt Q9NR97)
# T1 construct: host or cells: HEK-Blue hTLR8 (HEK293-derived SEAP reporter cells)
# T1 sequence (Q9NR97 27-1041): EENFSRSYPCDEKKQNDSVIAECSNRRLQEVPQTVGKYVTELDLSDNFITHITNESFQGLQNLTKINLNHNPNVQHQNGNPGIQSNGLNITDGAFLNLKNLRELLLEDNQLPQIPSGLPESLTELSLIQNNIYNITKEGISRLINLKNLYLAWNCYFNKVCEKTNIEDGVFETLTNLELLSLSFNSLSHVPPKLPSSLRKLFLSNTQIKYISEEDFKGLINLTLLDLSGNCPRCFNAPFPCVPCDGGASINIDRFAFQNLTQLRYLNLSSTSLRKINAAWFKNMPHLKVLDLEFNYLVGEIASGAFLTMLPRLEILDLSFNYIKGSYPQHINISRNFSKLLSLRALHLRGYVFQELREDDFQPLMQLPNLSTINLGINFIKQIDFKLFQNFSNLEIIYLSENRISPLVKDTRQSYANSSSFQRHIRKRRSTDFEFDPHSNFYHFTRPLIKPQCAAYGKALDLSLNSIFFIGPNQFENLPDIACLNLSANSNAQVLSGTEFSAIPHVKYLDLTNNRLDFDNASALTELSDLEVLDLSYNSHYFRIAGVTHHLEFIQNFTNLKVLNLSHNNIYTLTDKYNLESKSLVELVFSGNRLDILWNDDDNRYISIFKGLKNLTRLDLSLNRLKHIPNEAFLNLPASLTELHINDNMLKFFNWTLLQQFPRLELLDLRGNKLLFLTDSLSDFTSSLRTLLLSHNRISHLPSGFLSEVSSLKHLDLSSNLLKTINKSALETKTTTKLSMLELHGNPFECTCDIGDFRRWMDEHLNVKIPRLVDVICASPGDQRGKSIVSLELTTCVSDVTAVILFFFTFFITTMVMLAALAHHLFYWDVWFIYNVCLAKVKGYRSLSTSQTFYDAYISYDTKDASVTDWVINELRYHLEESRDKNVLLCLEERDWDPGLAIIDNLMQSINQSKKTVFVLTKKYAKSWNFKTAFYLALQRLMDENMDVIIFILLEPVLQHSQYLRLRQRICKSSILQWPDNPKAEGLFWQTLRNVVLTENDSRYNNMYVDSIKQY
# Assay: TLR8 reporter assay in HEK-Blue cells (SEAP, Quanti-Blue)
# Type: cell-based
# Conditions: 24 hours incubation, SEAP absorbance at 620 nm
# Method: HEK-Blue™ TLR7 and TLR8 cell lines were obtained from InvivoGen (San Diego, CA, USA). HEK-Blue cells were cultured in DMEM medium hi glucose (Gibco-10569010) supplemented with 10% HI-FBS (Aus origin) (Gibco-10100-147), 1% penicillin/streptomycin (Gibco-15140-122-100 ml) as per manufacturer's recommendation. In addition, specific antibiotic mixtures were added to the culture. 100 μg/ml Zeocin (11006-33-0), 10 μg/ml Blasticidin (ant-bl-05), 50 μg/ml Normocin (ANT-NR-1-500 MG) for HEK-Blue™ hTLR7 and 100 μg/ml Zeocin, 30 μg/ml Blasticidin, 50 μg/ml Normocin for HEK-Blue™ hTLR8 cells (all from InvivoGen).
# All the compounds were prepared in 100% DMSO (Sigma-D2650). The compounds were serially diluted in 100% DMSO (3 fold) up to 10 point dose response curve starting with 30 μM; final concentration of DMSO in the plate was 0.3%. Resiquimod and TL8-506 (InvivoGen-tlrl-t18506) were used as controls. 0.3% DMSO and 10 μM Resiquimod were used as min and max respectively, and % activation was calculated using following formula:
# % Activation: {100−(max absorbance−absorbance)/(max absorbance−min absorbance)}×100.
# For stimulation with TLR7/8 agonists, cells were resuspended in complete media and 40 μl of cell suspension (10,000 cells/well) was seeded on day 1 in 384 well assay plate (Thermo Scientific™ Nunc-164688) having pre-dispensed compounds with Echo Liquid handler. The plate was spun at 100 g for 1 min to settle down the cells and incubated at 37° C. with 5% CO2 for 24 hours. For measuring production of SEAP after 24 hrs of incubation, 10 μl of Quanti-Blue™ solution (InvivoGen rep-qbs2) prepared according to manufacturer's instructions was added in dark to the assay plate and incubated at 37° C. with 5% CO2 for 30 min. Post incubation, the absorbance was measured at 620 nm in Tecan spark (Spark control Magellan). EC50 were determined using Graph Pad Prism Statistical software (Version 7.05), with individual data points represent the absorbance values of duplicates.
row,SMILES,pEC50
1,CCNCc1nc2c(N)nc3ccccc3c2n1CC(C)(C)OCCCCN1CCN(C)CC1 [Example 18],< 5.00
2,CCOCc1nc2c(N)nc3ccccc3c2n1CC(C)(C)OC(=O)CN [Example 19],7.00 to 8.00
3,CCOCc1nc2c(N)nc3ccccc3c2n1CC(C)(C)OCCCN1CCN(C)CC1 [Example 2],5.00 to 6.00
4,CCOCc1nc2c(N)nc3ccccc3c2n1CC(C)(C)OCCCCN1CCN(CC(C)(C)SC)CC1 [Example 27],5.00 to 6.00
5,CCOCc1nc2c(N)nc3ccccc3c2n1CC(C)(C)OCCCCCN1CCN(C)CC1 [Example 4],6.00 to 7.00
6,CCOCc1nc2c(N)nc3ccccc3c2n1CC(C)(C)OCCCCN1CCN(CCN)CC1 [Example 11],5.00 to 6.00
7,CCOCc1nc2c(N)nc3ccccc3c2n1CC(C)(C)OCCCCN1CCN(C)CC1 [Example 3],5.00 to 6.00

# The next lines start with the values.
row,pEC50,SMILES
1,6.00 to 7.00,CCOCc1nc2c(N)nc3ccccc3c2n1CC(C)(C)OCCCCN1CCOCC1 [Example 7]
2,6.00 to 7.00,CCOCc1nc2c(N)nc3ccccc3c2n1CC(C)(C)OCCCCN1CCCC1 [Example 9]
3,< 5.00,CCOCc1nc2c(N)nc3ccccc3c2n1CC(C)(C)OCCCCn1cc(CO)nn1 [Example 13]
4,5.00 to 6.00,CCOCc1nc2c(N)nc3ccccc3c2n1CC(C)(C)OCCCCn1cc(CN)nn1 [Example 14]
5,5.00 to 6.00,CCOCc1nc2c(N)nc3ccccc3c2n1CC(C)(C)OCCCCN1CCNCC1 [Example 10]
6,5.00 to 6.00,CCOCc1nc2c(N)nc3ccccc3c2n1CC(C)(C)OCCCCN1CCCCC1 [Example 8]
